Results taken from US20250367160A1, “USE OF GUAIJAVERIN IN PREPARATION OF EYE PROTECTION PRODUCT” (Innovation Center of Yangtze River Delta, ZJU, priority 2024, published 2025).

Columns and labels:
[1] = system: ocular apoptotic cells of the zebrafish; experiment: Anti-blue light eye protection efficacy, AO staining of ocular apoptotic cells in zebrafish blue light eye damage model; assay type: in vivo; settings: for Fluorescence intensity of ocular apoptotic cells (pixel, mean ± SE): aqueous, 28° C., 1 d, n = 10, model group 45833 ± 4825, normal control 12203 ± 1124
Protocol: Wild-type AB zebrafish at 1 dpf were randomly selected and irradiated with blue light after membrane rupture to establish the zebrafish blue light eye damage model. Model zebrafish with desirable development status were selected at 3 dpf and randomly distributed in 6-well plates, with 30 zebrafish in each well (experimental group) were treated. Different concentrations of guaijaverin (see Table 2 for concentrations) were administered aqueously, and lutein at a concentration of 62.5 μg/mL were used as a positive control, while a normal control group and a model group were also set up, with a volume of 3 mL per well. After 1 d of treatment at 28° C., the zebrafish in each experimental group were stained with AO in the dark for 30 min and washed 3 times with standard dilution water. 10 zebrafish were randomly selected from each experimental group and photographed under a fluorescence microscope. The data were analyzed and collected using Image J software. The fluorescence intensity of ocular apoptotic cells of the zebrafish was statistically analyzed. The anti-blue light eye protection efficacy of guaijaverin was evaluated based on the statistical analysis results of the above indicators. The statistical result was expressed as mean±SE.

T-AOC = experiment: Mouse retinal optical damage model, plasma total antioxidant capacity (T-AOC); assay type: in vivo, BALB/c mice; settings: gavage once a day 10 days, vs model group, FIG. 7
Protocol: A self-made light box with a length of 108 cm, a width of 50 cm, and a height of 72 cm was used, and the light intensity was measured by a light meter to be 8,500-10,000 Lux. After eye examination, 60 mice with normal eyeballs were selected and randomly divided into a control group, a model group, a lutein group (100 mg/kg), a guaijaverin low-dose group (50 mg/kg), and a guaijaverin high-dose group (100 mg/kg), with 12 mice in each group. Lutein and guaijaverin were suspended in 5% sodium carboxymethylcellulose (CMC-Na) solution and administered by gavage once a day. The mice in the control and model groups were administered by gavage with an equal volume of 5% CMC-Na for 10 consecutive days. 10 days later, the mice in the model group, lutein group, guaijaverin low-dose group, and guaijaverin high-dose group were kept in the dark for 36 h, atropine eye gel was applied to both eyes of the mice to induce pupil dilation, and the mice were placed in the self-made lighting device of 8,000-10,000 Lux (the control group was raised in a normal environment) and given continuous light for 24 h. […]
The mouse blood was collected in an anticoagulant tube and centrifuged at 3,000 rpm for 10 min at 4° C. to collect the upper plasma. The T-AOC content was determined according to the method provided by the kit manufacturer.

mouse retina = experiment: Mouse retinal optical damage model, H&E histopathological evaluation of retina; assay type: in vivo, BALB/c mice; settings: for morphology and thickness of the outer nuclear layer retina and inner nuclear layer retina (H&E): gavage once a day 10 days, vs model group, FIG. 5
Protocol: A self-made light box with a length of 108 cm, a width of 50 cm, and a height of 72 cm was used, and the light intensity was measured by a light meter to be 8,500-10,000 Lux. After eye examination, 60 mice with normal eyeballs were selected and randomly divided into a control group, a model group, a lutein group (100 mg/kg), a guaijaverin low-dose group (50 mg/kg), and a guaijaverin high-dose group (100 mg/kg), with 12 mice in each group. Lutein and guaijaverin were suspended in 5% sodium carboxymethylcellulose (CMC-Na) solution and administered by gavage once a day. The mice in the control and model groups were administered by gavage with an equal volume of 5% CMC-Na for 10 consecutive days. 10 days later, the mice in the model group, lutein group, guaijaverin low-dose group, and guaijaverin high-dose group were kept in the dark for 36 h, atropine eye gel was applied to both eyes of the mice to induce pupil dilation, and the mice were placed in the self-made lighting device of 8,000-10,000 Lux (the control group was raised in a normal environment) and given continuous light for 24 h. After the light exposure, the mice in each group had their eyeballs removed to draw blood and eyeball tissue collected for subsequent experimental tests.
Eyeball tissues of 6 mice were collected from each group for Hematoxylin-eosin staining (H&E) and TUNEL fluorescence staining of apoptotic cells, and the pathological changes of mouse eyeball tissues were observed using an optical microscope (completed by Wuhan Servicebio Biotechnology Co., Ltd.).
a) Dewaxing of paraffin sections to water: the sections were sequentially placed in environmental-friendly dewaxing solution I for 20 min, environmental-friendly dewaxing solution II for 20 min, anhydrous ethanol I for 5 min, anhydrous ethanol II for 5 min, and 75% alcohol for 5 min, and then wash with tap water.
b) Pretreatment: the sections were placed into H&E high-definition constant staining pretreatment solution for 1 min. […]
f) The sections were examined under a microscope and the images were collected and analyzed.

Wild-type AB zebrafish = experiment: Determination of maximum test concentration (MTC) in zebrafish blue light eye damage model; assay type: in vivo; settings: 28° C.; for Death count / Development status (phenotype) / Mortality: aqueous, n = 30
Protocol: Wild-type AB zebrafish at 1 day post-fertilization (1 dpf) were randomly selected and irradiated with blue light after membrane rupture to establish the zebrafish blue light eye damage model. Model zebrafish with desirable development status were selected at 3 dpf and randomly distributed in 6-well plates, with 30 zebrafish in each well (experimental group) were treated. Different concentrations of guaijaverin (concentrations shown in Table 1) were administered aqueously, and a normal control group and a model group were set up, where a volume of each well was 3 mL. After treatment at 28° C. for 1 d, the MTC of guaijaverin on model zebrafish was determined.

[2] = system: Heme Oxygenase-1 (HO-1 protein); experiment: Mouse retinal optical damage model, Western blot of HO-1 protein in retina; assay type: in vivo, BALB/c mice; settings: high-dose 100 mg/kg, gavage once a day 10 days, vs model group, FIG. 9
Protocol: A self-made light box with a length of 108 cm, a width of 50 cm, and a height of 72 cm was used, and the light intensity was measured by a light meter to be 8,500-10,000 Lux. After eye examination, 60 mice with normal eyeballs were selected and randomly divided into a control group, a model group, a lutein group (100 mg/kg), a guaijaverin low-dose group (50 mg/kg), and a guaijaverin high-dose group (100 mg/kg), with 12 mice in each group. Lutein and guaijaverin were suspended in 5% sodium carboxymethylcellulose (CMC-Na) solution and administered by gavage once a day. The mice in the control and model groups were administered by gavage with an equal volume of 5% CMC-Na for 10 consecutive days. […]
The mouse retina was taken, and 100-150 μL of RIPA lysis buffer was added for every 10 mg of tissue. After sufficient lysis, the protein content was detected using a BCA protein quantification kit. […] The bands were analyzed by the supporting software of the red laser two-color imaging system, with GAPDH protein expression as an internal reference.

## O=c1c(O[C@@H]2OC[C@H](O)[C@H](O)[C@H]2O)c(-c2ccc(O)c(O)c2)oc2cc(O)cc(O)c12 [Guaijaverin, guaijaverin]
[1]; 62.5 μg/mL
  Fluorescence intensity of ocular apoptotic cells (pixel, mean ± SE): 31471 ± 2353 pixel
[1]; 125 μg/mL vs lutein 62.5 μg/mL
  eye protection effect against blue optical damage compared with lutein: same significant eye protection effect as lutein
[1]; 125 μg/mL
  Fluorescence intensity of ocular apoptotic cells (pixel, mean ± SE): 24765 ± 2077 pixel
[1]; 150 μg/mL vs lutein 62.5 μg/mL
  eye protection effect against blue optical damage compared with lutein: more significant eye protection effect than lutein
[1]; 150 μg/mL
  Fluorescence intensity of ocular apoptotic cells (pixel, mean ± SE): 18149 ± 1688 pixel
T-AOC; high-dose 100 mg/kg
  plasma T-AOC level: significantly increase the T-AOC level
T-AOC; low-dose 50 mg/kg
  plasma T-AOC level: significantly increase the T-AOC level
Mouse retina; high-dose 100 mg/kg vs lutein 100 mg/kg
  anti-optical damage eye protection efficacy compared with lutein (H&E): better anti-optical damage eye protection efficacy than lutein
Mouse retina; high-dose 100 mg/kg
  morphology and thickness of the outer nuclear layer retina and inner nuclear layer retina (H&E): increase the thickness of the outer nuclear layer retina and inner nuclear layer retina
Mouse retina; low-dose 50 mg/kg
  morphology and thickness of the outer nuclear layer retina and inner nuclear layer retina (H&E): increase the thickness of the outer nuclear layer retina and inner nuclear layer retina
Wild-type AB zebrafish; 125 μg/mL, 1 d
  Death count: 0 per fish
  Development status (phenotype): Status similar to that of model
  Mortality: 0%
Wild-type AB zebrafish; 150 μg/mL, 1 d
  Death count: 0 per fish
  Development status (phenotype): Status similar to that of model
  Mortality: 0%
Wild-type AB zebrafish; 200 μg/mL in fish water
  Dissolution: Precipitated
Wild-type AB zebrafish; 200 μg/mL, 1 d
  Death count: 0 per fish
  Development status (phenotype): Status similar to that of model
  Mortality: 0%
Wild-type AB zebrafish; 250 μg/mL in fish water
  Dissolution: Precipitated
Wild-type AB zebrafish; 250 μg/mL, 1 d
  Death count: 0 per fish
  Development status (phenotype): Status similar to that of model
  Mortality: 0%
Wild-type AB zebrafish; 500 μg/mL in fish water
  Dissolution: Precipitated
Wild-type AB zebrafish; 500 μg/mL, 1 d
  Death count: 0 per fish
  Development status (phenotype): Status similar to that of model
  Mortality: 0%
Wild-type AB zebrafish; 1000 μg/mL in fish water
  Dissolution: Precipitated
Wild-type AB zebrafish; 1000 μg/mL, 1 d
  Death count: 0 per fish
  Development status (phenotype): Status similar to that of model
  Mortality: 0%
Wild-type AB zebrafish; 2000 μg/mL in fish water
  Dissolution: Precipitated
Wild-type AB zebrafish; 2000 μg/mL, 1 d
  Death count: 0 per fish
  Development status (phenotype): Status similar to that of model
  Mortality: 0%
Wild-type AB zebrafish; model zebrafish, 1 d
  MTC (maximum test concentration): 150 µg/mL
[2]
  expression of HO-1 protein in the retinal tissue: significantly reduced the expression of HO-1 protein
